Data on two compounds can be found in US9944971B2, “Determination of direct thrombin inhibitors in fluids like serum or urine” (DOASENSE GmbH, priority 2011, dated 2018).

The nature of series [1]: Concentration of dabigatran in urine of a treated patient, read from curve of spiked urine. Details: species or system human. On the procedure: This program quantifies the colors red, yellow and blue. […] Mean values were calculated from double values.
Series [2] deals with T1, thrombin (Bos taurus, UniProt P00735).
T1 construct: purchased Chromogenix
In words: Chromogenic thrombin (factor IIa) inhibition test with substrate S-2238, absorption at 405 nm. It counts as biochemical. Particulars: samples of plasma, serum and urine spiked at different concentrations, FIGS. 2 and 3.
Method: Dissolve 1 ampule thrombin 10 U with 1 ml aqua. dest and is brought to 11.5 ml with Tris-Buffer. Additionally, add 1 ml aprotinin 500 KIU/ml.
The concentration of Dabigatran and Hirudin was carried out using the standard curve. The concentration of Dabigatran/Hirudin was determined by the optical density (OD) of the sample.

Consider `[H]/N=C(/N)c1ccc(NCc2nc3cc(C(=O)N(CCC(=O)O)c4ccccn4)ccc3n2C)cc1` [Dabigatran], for which the concentration of dabigatran in series [1] (human urine from a patient treated with dabigatran, undiluted) turned out to be 85 ng; in series [1] (patient urine diluted 1:10 with urine not containing dabigatran), 8.5 ng; in series [1] (patient urine diluted 1:100 with urine not containing dabigatran), 0.85 ng.
As for Hirudin, the “inhibition of the activity of thrombin and release of para-nitroaniline from chromogenic substrate S2238” value in series [2] is reported as “in a dose-dependent manner”.
